In PubChem BioAssay (NCI):
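48-hour exposure; five concentrations; linearly interpolated endpoints. At the GI50, growth is halved. TGI denotes the concentration required for complete inhibition of growth.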 Where a SMILES comes first, the peptide text is derived from it. [ ]: non-standard residue; d: D form. The star is where a group is joined. ξ: configuration not given here. ξNMe2Val = CC(C)C(C(=O)*)N(C)C; NMeV = CN[CH](C(=O)O)C(C)C; NHBn = c1ccc(CN*)cc1

Experiments:
Experiment in all cases: DTP human tumour cell line panel, 48 h
IGROV1 ovarian = test system: IGROV1 ovarian
786-0 renal = test system: 786-0 renal
K-562 leukemia = test system: K-562 leukemia
SN12C renal = test system: SN12C renal
SK-OV-3 ovarian = test system: SK-OV-3 ovarian
NCI-H522 lung = test system: NCI-H522 lung
SK-MEL-2 melanoma = test system: SK-MEL-2 melanoma
SK-MEL-28 melanoma = test system: SK-MEL-28 melanoma
BT-549 breast = test system: BT-549 breast
SNB-75 CNS = test system: SNB-75 CNS
A498 renal = test system: A498 renal
NCI-H23 lung = test system: NCI-H23 lung
NCI-H460 lung = test system: NCI-H460 lung
MDA-MB-435 = test system: MDA-MB-435
HS 578T breast = test system: HS 578T breast
HOP-62 NSCLC = test system: HOP-62 NSCLC
M14 melanoma = test system: M14 melanoma
CCRF-CEM leukemia = test system: CCRF-CEM leukemia
A549 NSCLC = test system: A549 NSCLC
HL-60(TB) leukemia = test system: HL-60(TB) leukemia
UACC-62 melanoma = test system: UACC-62 melanoma
OVCAR-3 ovarian = test system: OVCAR-3 ovarian
DU-145 prostate = test system: DU-145 prostate
OVCAR-8 ovarian = test system: OVCAR-8 ovarian
SF-539 CNS = test system: SF-539 CNS
SW-620 colon = test system: SW-620 colon
CAKI-1 renal = test system: CAKI-1 renal
EKVX NSCLC = test system: EKVX NSCLC
RPMI-8226 leukemia = test system: RPMI-8226 leukemia
UACC-257 melanoma = test system: UACC-257 melanoma
PC-3 prostate = test system: PC-3 prostate
UO-31 renal = test system: UO-31 renal
KM12 colon = test system: KM12 colon
LOX IMVI melanoma = test system: LOX IMVI melanoma
TK-10 renal = test system: TK-10 renal
HOP-92 NSCLC = test system: HOP-92 NSCLC
ACHN renal = test system: ACHN renal
COLO 205 colon = test system: COLO 205 colon
HT29 colon = test system: HT29 colon
SK-MEL-5 melanoma = test system: SK-MEL-5 melanoma
NCI/ADR-RES ovarian = test system: NCI/ADR-RES ovarian
SF-268 CNS = test system: SF-268 CNS
HCC-2998 colon = test system: HCC-2998 colon
NCI-H226 lung = test system: NCI-H226 lung
T-47D breast = test system: T-47D breast
HCT-15 colon = test system: HCT-15 colon
OVCAR-5 ovarian = test system: OVCAR-5 ovarian
SR leukemia = test system: SR leukemia
MALME-3M melanoma = test system: MALME-3M melanoma
U251 CNS = test system: U251 CNS
MOLT-4 leukemia = test system: MOLT-4 leukemia
MCF7 breast = test system: MCF7 breast
HCT-116 colon = test system: HCT-116 colon
SNB-19 CNS = test system: SNB-19 CNS
SF-295 CNS = test system: SF-295 CNS
MDA-MB-231 breast = test system: MDA-MB-231 breast
OVCAR-4 ovarian = test system: OVCAR-4 ovarian
RXF 393 renal = test system: RXF 393 renal
MDA-N = test system: MDA-N

## Cc1cc2c(C(=O)NC[C@H](C)c3ccccc3)c(O)c(O)cc2c(O)c1-c1c(C)cc2c(C(=O)NC[C@H](C)c3ccccc3)c(O)c(O)cc2c1O
IGROV1 ovarian
  GI50: 90.9 nM
  TGI: 11300 nM
786-0 renal
  GI50: 368 nM
  TGI: 1800 nM
K-562 leukemia
  GI50: 170 nM
  TGI: 7690 nM
SN12C renal
  GI50: 436 nM
  TGI: 10600 nM
SK-OV-3 ovarian
  GI50: 431 nM
  TGI: 2800 nM
NCI-H522 lung
  GI50: 288 nM
  TGI: 1180 nM
SK-MEL-2 melanoma
  GI50: 596 nM
  TGI: 4230 nM
SK-MEL-28 melanoma
  GI50: 437 nM
  TGI: 4410 nM
BT-549 breast
  GI50: 43.7 nM
  TGI: 2030 nM
SNB-75 CNS
  GI50: 251 nM
  TGI: 1980 nM
A498 renal
  GI50: 316 nM
  TGI: 7540 nM
NCI-H23 lung
  GI50: 57.1 nM
  TGI: 1650 nM
NCI-H460 lung
  GI50: 33.4 nM
  TGI: 388 nM
MDA-MB-435
  GI50: 232 nM
  TGI: 4790 nM
HS 578T breast
  GI50: 274 nM
  TGI: 2560 nM
HOP-62 NSCLC
  GI50: 301 nM
  TGI: 2150 nM
M14 melanoma
  GI50: 438 nM
  TGI: 5720 nM
CCRF-CEM leukemia
  GI50: 122 nM
  TGI: 11000 nM
A549 NSCLC
  GI50: 69.3 nM
  TGI: 3230 nM
HL-60(TB) leukemia
  GI50: 901 nM
  TGI: 8570 nM
UACC-62 melanoma
  GI50: 146 nM
  TGI: 486 nM
OVCAR-3 ovarian
  GI50: 306 nM
  TGI: 1550 nM
DU-145 prostate
  GI50: 300 nM
  TGI: 14300 nM
OVCAR-8 ovarian
  GI50: 588 nM
  TGI: 10100 nM
SF-539 CNS
  GI50: 242 nM
  TGI: 1020 nM
SW-620 colon
  GI50: 482 nM
  TGI: 5700 nM
CAKI-1 renal
  GI50: 375 nM
  TGI: 10000 nM
EKVX NSCLC
  GI50: 411 nM
  TGI: 8100 nM
RPMI-8226 leukemia
  GI50: 185 nM
  TGI: 5410 nM
UACC-257 melanoma
  GI50: 1370 nM
  TGI: 7230 nM
PC-3 prostate
  GI50: 342 nM
  TGI: 1460 nM
UO-31 renal
  GI50: 285 nM
  TGI: 1240 nM
KM12 colon
  GI50: 107 nM
  TGI: 2240 nM
LOX IMVI melanoma
  GI50: 539 nM
  TGI: 4890 nM
TK-10 renal
  GI50: 298 nM
  TGI: 10600 nM
HOP-92 NSCLC
  GI50: 276 nM
  TGI: 1000 nM
ACHN renal
  GI50: 296 nM
  TGI: 3830 nM
COLO 205 colon
  GI50: 711 nM
  TGI: 5830 nM
HT29 colon
  GI50: 355 nM
  TGI: 11000 nM
SK-MEL-5 melanoma
  GI50: 447 nM
  TGI: 1470 nM
NCI/ADR-RES ovarian
  GI50: 252 nM
  TGI: 4300 nM
SF-268 CNS
  GI50: 234 nM
  TGI: 3700 nM
HCC-2998 colon
  GI50: 932 nM
  TGI: 3080 nM
NCI-H226 lung
  GI50: 244 nM
  TGI: 987 nM
T-47D breast
  GI50: 284 nM
  TGI: 1340 nM
HCT-15 colon
  GI50: 208 nM
  TGI: 12600 nM
OVCAR-5 ovarian
  GI50: 503 nM
  TGI: 5030 nM
SR leukemia
  GI50: 376 nM
  TGI: 4510 nM
MALME-3M melanoma
  GI50: 1780 nM
  TGI: 7230 nM
U251 CNS
  GI50: 74 nM
  TGI: 1670 nM
MOLT-4 leukemia
  GI50: 199 nM
  TGI: 7800 nM
MCF7 breast
  GI50: 68.5 nM
  TGI: 4200 nM
HCT-116 colon
  GI50: 34.6 nM
  TGI: 9590 nM
SNB-19 CNS
  GI50: 60.5 nM
  TGI: 4300 nM
SF-295 CNS
  GI50: 131 nM
  TGI: 702 nM
MDA-MB-231 breast
  GI50: 677 nM
  TGI: 6530 nM
OVCAR-4 ovarian
  GI50: 446 nM
  TGI: 8300 nM
RXF 393 renal
  GI50: 197 nM
  TGI: 895 nM

## CC(C)C(NC(=O)C(C(C)C)N(C)C)C(=O)N(C)C(C(=O)N1CCCC1C(=O)N1CCCC1C(=O)NCc1ccccc1)C(C)C (configuration not stated) (ξNMe2Val-V[NMeV]PP-NHBn; configuration not given here)
IGROV1 ovarian
  TGI: > 100000 nM
786-0 renal
  TGI: > 100000 nM
SK-OV-3 ovarian
  TGI: > 100000 nM
NCI-H522 lung
  TGI: 418 nM
BT-549 breast
  TGI: 78.8 nM
SNB-75 CNS
  TGI: 53800 nM
NCI-H23 lung
  TGI: > 100000 nM
NCI-H460 lung
  TGI: 22.7 nM
HOP-62 NSCLC
  TGI: > 100000 nM
CCRF-CEM leukemia
  TGI: 1.44 nM
A549 NSCLC
  TGI: > 100000 nM
HL-60(TB) leukemia
  TGI: < 0.1 nM
UACC-62 melanoma
  TGI: 10.5 nM
DU-145 prostate
  TGI: 11.7 nM
SW-620 colon
  TGI: > 100000 nM
CAKI-1 renal
  TGI: > 100000 nM
EKVX NSCLC
  GI50: < 0.1 nM
  TGI: > 100000 nM
RPMI-8226 leukemia
  TGI: > 100000 nM
UO-31 renal
  TGI: > 100000 nM
KM12 colon
  TGI: < 0.1 nM
MDA-N
  TGI: < 0.1 nM
LOX IMVI melanoma
  TGI: 0.253 nM
ACHN renal
  TGI: > 100000 nM
COLO 205 colon
  TGI: 0.16 nM
SK-MEL-5 melanoma
  TGI: 0.265 nM
NCI/ADR-RES ovarian
  GI50: 264 nM
  TGI: 7390 nM
SF-268 CNS
  TGI: > 100000 nM
OVCAR-5 ovarian
  TGI: 206 nM
MALME-3M melanoma
  TGI: > 100000 nM
U251 CNS
  TGI: 3110 nM
SNB-19 CNS
  TGI: > 100000 nM
MDA-MB-231 breast
  TGI: 0.242 nM
OVCAR-4 ovarian
  TGI: > 100000 nM
RXF 393 renal
  TGI: > 100000 nM
